Data on one compound can be found in ChEMBL document CHEMBL1799909, “Lithothamnin A, the first bastadin-like metabolite from the red alga Lithothamnion fragilissimum” (J Nat Prod, 2011).

What all share (assay type): functional, cell-based
The subject of one test is SNB-19. Put plainly: Cytotoxicity against human SNB19 cells after 2 days by XTT assay. To be noted: SNB-19, 48 h. Background: Formazan colour is commonly taken as a measure of viable cells.
Test [1] can be described thus: Cytotoxicity against human LOX cells after 2 days by XTT assay. To be noted: 48 h.
For the next test, the system named is OVCAR-3. Put plainly: Cytotoxicity against human OVCAR3 cells after 2 days by XTT assay. To be noted: OVCAR-3, 48 h.
In another test the test system is COLO 205. Description: Cytotoxicity against human COLO205 cells after 2 days by XTT assay. To be noted: COLO 205, 48 h.
The subject of another test is MOLT-4. Description: Cytotoxicity against human MOLT4 cells after 2 days by XTT assay. To be noted: MOLT-4, 48 h.

Structures are written as SMILES.

As a reminder, the IC50 is the concentration needed to halve the response being measured. High values mean weaker potency in that assay, low ones greater potency in that assay. As for `O=C1NCCc2cc(Br)c(O)c(c2)Oc2cc(O)c(cc2Br)CCNC(=O)/C(=N/O)Cc2c(O)cc(Br)c(c2Br)Oc2cc(cc(Br)c2O)C/C1=N\O` [LITHOTHAMNIN A], the IC50 amounted to 7.6 µM with SNB-19; 9.5 µM in test [1]; 7.6 µM in the test on OVCAR-3; 19 µM in the test on COLO 205; 19 µM in the test with MOLT-4.
